Assay results reported in patent US20140010876A1, “PHARMACEUTICAL ADMINISTRATION FORMS COMPRISING 5-CHLORO-N-(METHYL)-2-THIOPHENECARBOXAMIDE” (BAYER PHARMA AKTIENGESELLSCHAFT, priority 2012, published 2014).

Test: solubility of the active compound (I) in water
Assay type: physicochemical
Procedure: During the development of formulations, the physicochemical characteristics have to be taken into account in combination with the particular biological properties of the active compound (I). The physicochemical characteristics include, for example, the poor solubility of the active compound (I) in water (about 7 mg/l). The particular biological properties of the active compound (I) are a food-dependent bioavailability (the “food effect”) which, in the case of rapid-release tablet formulations, is noticeable at dosages from about 15 mg, and a limited absorption from the lower sections of the intestine. As a consequence, the desired administration once daily requires specific pharmaceutical formulations releasing the active compound (I) taking into account its biopharmaceutical characteristics, such that on the one hand the active compound (I) is present in an amount sufficient to have a pharmaceutical effect and that on the other hand the active compound (I) is released in a manner such that its challenging properties with respect to solubility, food effect and absorption are overcome.

solubility: ~7 µg/mL
SMILES: O=C(NC[C@H]1CN(c2ccc(N3CCOCC3=O)cc2)C(=O)O1)c1ccc(Cl)s1 [active compound (I), 5-chloro-N-({(5S)-2-oxo-3-[4-(3-oxo-4-morpholinyl)phenyl]-1,3-oxazolidin-5-yl}methyl)-2-thiophenecarboxamide]
